Measurements reported in PubChem BioAssay (NCI).
Values joined by “and” are separate entries in the source; they are usually repeats but may differ in a detail not shown here. Equal values may be shown once.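 Interpolation was linear, between the two tested concentrations surrounding the appropriate level; five concentrations were tested over 48 hours in 96-well plates. At the GI50, growth is halved. TGI is the concentration that stops growth completely.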

What was measured:
Experiment in all cases: inhibition of tumour cell growth, NCI panel, 48 h
[1] = tested on: CCRF-CEM leukemia
[2] = tested on: T-47D breast
[3] = tested on: SNB-75 CNS
[4] = tested on: MCF7 breast
[5] = tested on: UACC-257 melanoma
[6] = tested on: MALME-3M melanoma
[7] = tested on: HT29 colon
[8] = tested on: HS 578T breast
[9] = tested on: MDA-MB-435
[10] = tested on: SK-MEL-5 melanoma

Row | SMILES | GI50 [1] | TGI [1] | GI50 [2] | TGI [2] | GI50 [3] | TGI [3] | GI50 [4] | TGI [4] | GI50 [5] | TGI [5] | GI50 [6] | TGI [6] | GI50 [7] | TGI [7] | GI50 [8] | TGI [8] | GI50 [9] [µM] | TGI [9] | GI50 [10] | TGI [10]
1 | N#CC1=C(N)NC(=O)C(C#N)C12Nc1ccccc1S2 (centres undefined) | > 100 µM | > 100 µM | > 100 µM | > 100 µM | > 100 µM | > 100 µM | 32.7 µM | > 100 µM | 39.9 µM | > 100 µM | 64 µM | > 100 µM | > 100 µM | > 100 µM | 43.2 µM | > 100 µM | > 100 | > 100 µM | > 100 µM | > 100 µM
2 | Nc1nc(N)nc(CCCCc2nc(N)nc(N)n2)n1 | – | > 100 µM | – | > 100 µM | – | > 100 µM | – | > 100 µM | – | > 100 µM | – | > 100 µM | – | > 100 µM | – | > 100 µM | – | > 100 µM | – | > 100 µM
3 | CCc1nc(N)nc(N)c1C#CC(C)c1ccc(-c2ccncc2)cc1Cl (centres undefined) | 0.0143 µM and 0.0367 µM | 5.48 µM and 14.5 µM | 0.0896 µM and 0.675 µM | 2.2 µM and 13.6 µM | 0.505 µM and 1.67 µM | 2.76 µM and 9.74 µM | 0.0144 µM and 0.0328 µM | 4.31 µM and 12.1 µM | 0.0286 µM and 0.0348 µM | 2.34 µM and 12.1 µM | 0.0378 µM and 0.307 µM | 1.93 µM and 13.1 µM | 0.00589 µM and 0.012 µM | 5.82 µM and 2.45 µM | 0.687 µM and 2.25 µM | 3.47 µM and 19.9 µM | – | 4.85 µM and 14.3 µM | 0.00753 µM and 0.0461 µM | 0.781 µM and 1.98 µM
4 | CN[C@@H](C)C(=O)N[C@H](C(=O)N1CCC[C@H]1c1nc(C(=O)c2ccc(F)cc2)cs1)C1CCCCC1 | 20.5 µM | > 84.6 µM | 20.4 µM | 77.8 µM | 4.31 µM | 20.9 µM | 16.1 µM | 32.8 µM | 15.1 µM | 31.2 µM | 4.08 µM | 20 µM | 20.5 µM | 42.8 µM | 19 µM | 74.1 µM | 16.3 | 40.6 µM | 13.6 µM | 28.7 µM
5 | O=C(CSSCC(=O)c1ccc(Cl)cc1)c1ccc(Cl)cc1 | 3.39 µM | > 100 µM | 8.66 µM | 45.2 µM | 6.62 µM | 21.4 µM | 3.76 µM | 17.8 µM | 5.18 µM | 34.4 µM | 3.19 µM | 17 µM | 3.42 µM | 17 µM | 7.51 µM | > 100 µM | 2.57 | 11 µM | 3.32 µM | 10.5 µM
6 | Nc1c(C(=O)c2cccc(-c3cccnc3)c2)cnn1-c1ccc(F)cc1 | > 25 µM | > 25 µM | > 25 µM | > 25 µM | > 12.6 µM | > 25 µM | > 25 µM | > 25 µM | > 25 µM | > 25 µM | > 25 µM | > 25 µM | > 25 µM | > 25 µM | > 25 µM | > 25 µM | > 25 | > 25 µM | > 25 µM | > 25 µM
7 | COc1ccc([N+](=O)[O-])c2c(NCCCN(C)C)c(C)c(C)nc12 | – | > 100 µM | – | > 100 µM | – | > 100 µM | – | > 100 µM | – | > 100 µM | – | > 100 µM | – | > 100 µM | – | > 100 µM | – | > 100 µM | – | > 100 µM
